According to patent publication US20240158392A1 (Janssen Biotech, Inc., priority 2021, published 2024):

Experiments:
SIK2 [1] = target: T1, SIK2 (Homo sapiens, UniProt Q9H0K1); experiment: SIK2 Enzymatic Assay Version 1 (ADP Glo); assay type: biochemical; settings: enzyme 0.6 nM, 160 μM ATP and 140 μM HDAC5tide (each 2× final concentration); 30 minutes pre-incubation, 4 hours; ADPGlo luminescence; read-out: SIK2 ADP Glo IC50 (μM) (Test Example 1)
How it was run: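 Kinase activity read as ADP production by ADP-Glo luminescence, all steps at room temperature. Compound and SIK2 (0.6 nM, a 2× concentration) were preincubated 30 min; ATP-only wells lacking peptide were the negative control; depletion 40 min, detection ≥30 min.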

SIK2 [2] = target: T1, SIK2; experiment: SIK2 Enzymatic Assay High Version 2 (High ATP); assay type: biochemical
How it was run: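 At room temperature, enzyme (6 nM, 2× final) was preincubated with compound for 30 min, then 6 mM ATP and 400 μM HDAC5tide (both 2× final) were added for 2 h. ADP formed was measured by ADP-Glo Max (2 h reagent, 1 h detection) using luminescence.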

T1 sequence (Q9H0K1 whole entry, species assumed): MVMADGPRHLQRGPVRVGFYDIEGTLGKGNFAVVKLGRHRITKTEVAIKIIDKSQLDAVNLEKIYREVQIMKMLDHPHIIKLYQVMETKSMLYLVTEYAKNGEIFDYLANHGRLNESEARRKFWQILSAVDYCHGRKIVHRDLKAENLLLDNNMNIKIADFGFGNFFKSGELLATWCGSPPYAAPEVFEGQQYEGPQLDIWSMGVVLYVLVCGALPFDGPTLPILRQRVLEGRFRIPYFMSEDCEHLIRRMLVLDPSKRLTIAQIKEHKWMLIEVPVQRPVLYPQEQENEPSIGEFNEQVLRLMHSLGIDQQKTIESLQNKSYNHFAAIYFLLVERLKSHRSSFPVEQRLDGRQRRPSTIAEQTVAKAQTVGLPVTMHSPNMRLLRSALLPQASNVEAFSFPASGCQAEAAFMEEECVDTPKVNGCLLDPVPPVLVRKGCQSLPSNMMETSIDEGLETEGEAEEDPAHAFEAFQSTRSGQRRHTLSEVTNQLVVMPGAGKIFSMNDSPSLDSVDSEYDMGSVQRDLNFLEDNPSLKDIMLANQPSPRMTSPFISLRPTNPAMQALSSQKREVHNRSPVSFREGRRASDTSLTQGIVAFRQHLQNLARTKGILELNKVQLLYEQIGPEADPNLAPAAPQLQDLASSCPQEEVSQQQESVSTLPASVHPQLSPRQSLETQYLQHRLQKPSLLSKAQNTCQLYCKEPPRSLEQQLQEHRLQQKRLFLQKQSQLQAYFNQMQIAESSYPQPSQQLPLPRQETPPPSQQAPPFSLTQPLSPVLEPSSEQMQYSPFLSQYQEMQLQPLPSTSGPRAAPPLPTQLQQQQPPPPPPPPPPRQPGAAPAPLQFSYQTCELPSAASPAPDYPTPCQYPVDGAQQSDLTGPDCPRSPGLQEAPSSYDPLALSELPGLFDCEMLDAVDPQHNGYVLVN

An IC50 (SIK2 [1]) of 0.00122 µM and an IC50 (SIK2 [2]) of 10.2 nM were found for N#Cc1cc(-c2ccn3nc(NC(=O)C4CC4)cc3c2)c(OC[C@@H]2CC[C@H](N)C2)cn1 [Example 20, N-[5-[5-[[(1R,3S)-3-aminocyclopentyl]methoxy]-2-cyano-4-pyridyl]pyrazolo[1,5-a]pyridin-2-yl]cyclopropanecarboxamide] in this work.
An IC50 (SIK2 [1]) of 0.0012 µM and an IC50 (SIK2 [2]) of 11.5 nM were found for Cc1ccnc(Nc2cc3cc(-c4cc(C)ncc4OC[C@@H]4CNCCO4)ccn3n2)c1 [Example 427, 5-[2-methyl-5-[[(2S)-morpholin-2-yl]methoxy]-4-pyridyl]-N-(4-methyl-2-pyridyl)pyrazolo[1,5-a]pyridin-2-amine] in this work.
An IC50 (SIK2 [1]) of 0.0034 µM and an IC50 (SIK2 [2]) of 81.3 nM were found for CN1CC(COc2cnc(C#N)cc2-c2ccn3nc(NC(=O)C4CC4)cc3c2)C1 [Example 32, N-[5-[2-cyano-5-[(1-methylazetidin-3-yl)methoxy]-4-pyridyl]pyrazolo[1,5-a]pyridin-2-yl]cyclopropanecarboxamide] in this work.
An IC50 (SIK2 [1]) of 0.0027 µM and an IC50 (SIK2 [2]) of 39.9 nM were found for N#Cc1cc(-c2ccn3nc(NC(=O)C4CC4)cc3c2)c(O[C@@H]2CCNCC2(F)F)cn1 [Example 15, N-[5-[2-cyano-5-[[(4R)-3,3-difluoro-4-piperidyl]oxy]-4-pyridyl]pyrazolo[1,5-a]pyridin-2-yl]cyclopropanecarboxamide] in this work.
An IC50 (SIK2 [1]) of 0.000299 µM and an IC50 (SIK2 [2]) of 3.04 nM were found for C[C@]1(O)CC[C@@H](Oc2cnc(C#N)cc2-c2ccn3nc(NC(=O)C4CC4)cc3c2)CC1 [Example 89] in this work.
An IC50 (SIK2 [1]) of 0.000627 µM and an IC50 (SIK2 [2]) of 9.09 nM were found for N#Cc1cc(-c2ccn3nc(NC(=O)C4CC4)cc3c2)c(O[C@@H]2CCNC2)cn1 [Example 594, N-[5-[2-cyano-5-[(3R)-pyrrolidin-3-yl]oxy-4-pyridyl]pyrazolo[1,5-a]pyridin-2-yl]cyclopropanecarboxamide] in this work.
An IC50 (SIK2 [1]) of 0.00116 µM and an IC50 (SIK2 [2]) of 24 nM were found for Cc1cc(-c2ccn3nc(NC(=O)C4CC4)cc3c2)c(OCC2(N)CCC2)cn1 [Example 154, N-[5-[5-[(1-aminocyclobutyl)methoxy]-2-methyl-4-pyridyl]pyrazolo[1,5-a]pyridin-2-yl]cyclopropanecarboxamide] in this work.
An IC50 (SIK2 [1]) of 0.00705 µM and an IC50 (SIK2 [2]) of 111 nM were found for N#Cc1cc(-c2ccn3nc(NC(=O)C4CC4)cc3c2)c(OC2CNC2)cn1 [Example 31, N-[5-[5-(azetidin-3-yloxy)-2-cyano-4-pyridyl]pyrazolo[1,5-a]pyridin-2-yl]cyclopropanecarboxamide] in this work.
An IC50 (SIK2 [1]) of 0.00431 µM and an IC50 (SIK2 [2]) of 99.9 nM were found for CN1CCC(Oc2cnc(C#N)cc2-c2ccn3nc(NC(=O)C4CC4)cc3c2)C1 (single isomer, unassigned) [Example 58, (*R)—N-(5-(2-cyano-5-((1-methylpyrrolidin-3-yl)oxy)pyridin-4-yl)pyrazolo[1,5-a]pyridin-2-yl)cyclopropanecarboxamide] in this work.
An IC50 (SIK2 [1]) of 0.0013 µM and an IC50 (SIK2 [2]) of 17.9 nM were found for CN1CC[C@@H](COc2cnc(Cl)cc2-c2ccn3nc(NC(=O)C4CC4)cc3c2)C1 [Example 490, N-[5-[2-chloro-5-[[(3R)-1-methylpyrrolidin-3-yl]methoxy]-4-pyridyl]pyrazolo[1,5-a]pyridin-2-yl]cyclopropanecarboxamide] in this work.
An IC50 (SIK2 [1]) of 0.0179 µM and an IC50 (SIK2 [2]) of 821 nM were found for COc1cnccc1-c1ccn2nc(NC(=O)C3CC3)cc2c1 [Example 749, N-[5-(3-methoxy-4-pyridyl)pyrazolo[1,5-a]pyridin-2-yl]cyclopropanecarboxamide] in this work.
An IC50 (SIK2 [1]) of 0.00261 µM and an IC50 (SIK2 [2]) of 47.9 nM were found for COCCN1CC[C@@H](Oc2cnc(C#N)cc2-c2ccn3nc(NC(=O)C4CC4)cc3c2)C1 [Example 111, (R)—N-[5-[2-cyano-5-[(3R)-1-(2-methoxyethyl)pyrrolidin-3-yl]oxy-4-pyridyl]pyrazolo[1,5-a]pyridin-2-yl]cyclopropanecarboxamide] in this work.
An IC50 (SIK2 [1]) of 0.00328 µM and an IC50 (SIK2 [2]) of 62.2 nM were found for Cc1cc(-c2ccn3nc(Nc4cc(C)nc(C)n4)cc3c2)c(OC[C@H]2CC[C@@H](O)CO2)cn1 (single isomer, unassigned) [Example 582, (3*R, 6*R)-6-[[4-[2-[(2,6-dimethylpyrimidin-4-yl)amino]pyrazolo[1,5-a]pyridin-5-yl]-6-methyl-3-pyridyl]oxymethyl]tetrahydropyran-3-ol] in this work.
An IC50 (SIK2 [1]) of 0.00338 µM and an IC50 (SIK2 [2]) of 48.5 nM were found for CN1CC[C@@H](COc2cnc(C#N)cc2-c2ccn3nc(Nc4ccccc4)cc3c2)C1 [Example 106, 4-(2-anilinopyrazolo[1,5-a]pyridin-5-yl)-5-[[(3R)-1-methylpyrrolidin-3-yl]methoxy]pyridine-2-carbonitrile] in this work.
An IC50 (SIK2 [1]) of 0.000938 µM and an IC50 (SIK2 [2]) of 10.8 nM were found for N#Cc1cc(-c2ccn3nc(NC(=O)C4CC4)cc3c2)c(OCC2CCNCC2)cn1 [Example 43, N-[5-[2-cyano-5-(4-piperidylmethoxy)-4-pyridyl]pyrazolo[1,5-a]pyridin-2-yl]cyclopropanecarboxamide] in this work.
An IC50 (SIK2 [1]) of 0.000791 µM and an IC50 (SIK2 [2]) of 10.3 nM were found for CN1CC[C@@H](COc2cnccc2-c2ccn3nc(NC(=O)C4CC4)cc3c2)C1 [Example 489, N-[5-[3-[[(3R)-1-methylpyrrolidin-3-yl]methoxy]-4-pyridyl]pyrazolo[1,5-a]pyridin-2-yl]cyclopropanecarboxamide] in this work.
An IC50 (SIK2 [1]) of 0.00358 µM and an IC50 (SIK2 [2]) of 60.9 nM were found for Cc1cc(-c2ccn3nc(NC(=O)C4CC4)cc3c2)c(O[C@@H]2CC[C@H](O)C2)cn1 (single isomer, unassigned) [Example 180, cis-N-(5-(5-(((1*R,3*S)-3-hydroxycyclopentyl)oxy)-2-methylpyridin-4-yl)pyrazolo[1,5-a]pyridin-2-yl)cyclopropanecarboxamide] in this work.
An IC50 (SIK2 [1]) of 0.0041 µM and an IC50 (SIK2 [2]) of 53.5 nM were found for CCOC(=O)CN[C@H]1C[C@@H](COc2cnc(C#N)cc2-c2ccn3nc(NC(=O)C4CC4)cc3c2)C1 [Example 598, ethyl 2-[[3-[[6-cyano-4-[2-(cyclopropanecarbonylamino)pyrazolo[1,5-a]pyridin-5-yl]-3-pyridyl]oxymethyl]cyclobutyl]amino]acetate] in this work.
An IC50 (SIK2 [1]) of 0.0359 µM and an IC50 (SIK2 [2]) of 1250 nM were found for CC1(C)CC(Oc2cnc(C#N)cc2-c2ccn3nc(NC(=O)C4CC4)cc3c2)CC(C)(C)N1 [Example 93, N-[5-[2-cyano-5-[(2,2,6,6-tetramethyl-4-piperidyl)oxy]-4-pyridyl]pyrazolo[1,5-a]pyridin-2-yl]cyclopropanecarboxamide] in this work.
An IC50 (SIK2 [1]) of 0.00192 µM and an IC50 (SIK2 [2]) of 29.9 nM were found for N#Cc1cc(-c2ccn3nc(NC(=O)C4CC4)cc3c2)c(OC[C@H]2C[C@@H](NC3CC3)C2)cn1 [Example 597, N-[5-[2-cyano-5-[[3-(cyclopropylamino)cyclobutyl]methoxy]-4-pyridyl]pyrazolo[1,5-a]pyridin-2-yl]cyclopropanecarboxamide] in this work.
An IC50 (SIK2 [1]) of 0.00212 µM and an IC50 (SIK2 [2]) of 36.4 nM were found for Cc1cc(-c2ccn3nc(NC(=O)C4CC4)cc3c2)c(OCC2(N)COC2)cn1 [Example 144, N-[5-[5-[(3-aminooxetan-3-yl)methoxy]-2-methyl-4-pyridyl]pyrazolo[1,5-a]pyridin-2-yl]cyclopropanecarboxamide] in this work.
An IC50 (SIK2 [1]) of 0.00321 µM and an IC50 (SIK2 [2]) of 55.9 nM were found for Cc1cc(-c2ccn3nc(NC(=O)C4CC4)cc3c2)c(OC[C@@H]2CCN(C)C2)cn1 [Example 509, N-[5-[2-methyl-5-[[(3R)-1-methylpyrrolidin-3-yl]methoxy]-4-pyridyl]pyrazolo[1,5-a]pyridin-2-yl]cyclopropanecarboxamide] in this work.
